Blank lines part the entries; values can stand above or below the molecule they belong to.
Legend:
[1] = biological target: T1, Von Hippel-Lindau disease tumor suppressor/Elongin B/Elongin C (Homo sapiens, UniProt P40337); experiment: Displacement of JC-9 probe from recombinant VHL/Elongin C/Elogin B (unknown origin) using FAM-DEALA-Hyp-YIPMDDDFQLRSF as substrate assessed as dissociation constant by competitive fluorescence polarization assay; type: protein-complex assay
[2] = biological target: T2, von Hippel-Lindau disease tumor suppressor/Leucine-rich repeat serine/threonine-protein kinase 2 (Mus musculus) (UniProt Q5S006+P40338); experiment: PROTAC activity at VHL/wildtype LRRK2 in MEF cells assessed as induction of LRRK2 degradation by measuring maximal efficacy at 300 nM incubated for 48 hrs by Western blot analysis relative to control; type: cell-based
[3] = biological target: T1, Von Hippel-Lindau disease tumor suppressor/Elongin B/Elongin C; experiment: Binding affinity to VHL/Elongin C/Elogin B (unknown origin) using FAM-DEALA-Hyp-YIPMDDDFQLRSF as substrate assessed as dissociation constant by fluorescence polarization assay; type: protein-complex assay
[4] = biological target: T2, von Hippel-Lindau disease tumor suppressor/Leucine-rich repeat serine/threonine-protein kinase 2 (Mus musculus); experiment: PROTAC activity at VHL/wildtype LRRK2 in MEF cells assessed as induction of LRRK2 degradation by measuring half-life at 300 nM incubated for 48 hrs by Western blot analysis; type: cell-based
HEK293 = experiment: Binding affinity to C-terminal NanoLuc fused human LRRK2/VHL-elongin-B-elongin C (unknown origin) complex expressed in HEK293 cells assessed as ternary complex formation by measuring cooperativity factor by NanoBRET based assay; type: cell-based
[5] = biological target: Protein cereblon/Leucine-rich repeat serine/threonine-protein kinase 2 (Homo sapiens, UniProt Q5S007+Q96SW2); experiment: PROTAC activity at CRBN/LRRK2 (unknown origin); type: protein assay
[6] = biological target: T3, Von Hippel-Lindau disease tumor suppressor/Elongin B/Elongin C (Homo sapiens) (UniProt P40337+Q15370+Q15369); experiment: Binding affinity to VHL/Elongin C/Elogin B (unknown origin) assessed as change in entropy at 20 uM by ITC analysis; type: protein-complex assay
[7] = biological target: T3, Von Hippel-Lindau disease tumor suppressor/Elongin B/Elongin C (Homo sapiens); experiment: Binding affinity to VHL/Elongin C/Elogin B (unknown origin) assessed as change in enthalpy at 20 uM by ITC analysis; type: protein-complex assay
[8] = biological target: T1, Von Hippel-Lindau disease tumor suppressor/Elongin B/Elongin C; experiment: Binding affinity to VHL/Elongin C/Elogin B (unknown origin) assessed as dissociation constant at 20 uM by ITC analysis; type: protein-complex assay
[9] = biological target: T3, Von Hippel-Lindau disease tumor suppressor/Elongin B/Elongin C (Homo sapiens); experiment: Binding affinity to VHL/Elongin C/Elogin B (unknown origin) assessed as change in gibbs free energy at 20 uM by ITC analysis; type: protein-complex assay

T3 sequence (P40337 whole entry, looked up): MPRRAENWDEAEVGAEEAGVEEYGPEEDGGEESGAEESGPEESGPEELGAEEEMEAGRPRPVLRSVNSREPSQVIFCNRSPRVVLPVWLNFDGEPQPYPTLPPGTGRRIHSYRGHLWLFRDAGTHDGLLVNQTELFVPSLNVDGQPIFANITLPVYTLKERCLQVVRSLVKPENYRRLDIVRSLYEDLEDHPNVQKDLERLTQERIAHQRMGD
T3 sequence (Q15369 whole entry, looked up): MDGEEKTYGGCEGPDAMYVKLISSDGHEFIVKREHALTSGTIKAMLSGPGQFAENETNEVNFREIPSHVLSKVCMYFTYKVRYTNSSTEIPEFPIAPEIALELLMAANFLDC
T3 sequence (Q15370 whole entry, looked up): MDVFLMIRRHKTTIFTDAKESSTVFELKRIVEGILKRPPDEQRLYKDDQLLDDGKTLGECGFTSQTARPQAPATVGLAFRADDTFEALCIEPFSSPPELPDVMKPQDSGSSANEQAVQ
T1 sequence (P40337 whole entry, looked up): as the sequence (P40337 whole entry, looked up) above
T2 sequence (P40338 whole entry, looked up): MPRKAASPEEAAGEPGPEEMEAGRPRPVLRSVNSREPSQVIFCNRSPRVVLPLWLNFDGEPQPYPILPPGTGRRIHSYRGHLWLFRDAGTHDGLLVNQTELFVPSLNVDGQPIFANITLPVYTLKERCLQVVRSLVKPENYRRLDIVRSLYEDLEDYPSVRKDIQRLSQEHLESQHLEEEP
T2 sequence (Q5S006 whole entry, looked up): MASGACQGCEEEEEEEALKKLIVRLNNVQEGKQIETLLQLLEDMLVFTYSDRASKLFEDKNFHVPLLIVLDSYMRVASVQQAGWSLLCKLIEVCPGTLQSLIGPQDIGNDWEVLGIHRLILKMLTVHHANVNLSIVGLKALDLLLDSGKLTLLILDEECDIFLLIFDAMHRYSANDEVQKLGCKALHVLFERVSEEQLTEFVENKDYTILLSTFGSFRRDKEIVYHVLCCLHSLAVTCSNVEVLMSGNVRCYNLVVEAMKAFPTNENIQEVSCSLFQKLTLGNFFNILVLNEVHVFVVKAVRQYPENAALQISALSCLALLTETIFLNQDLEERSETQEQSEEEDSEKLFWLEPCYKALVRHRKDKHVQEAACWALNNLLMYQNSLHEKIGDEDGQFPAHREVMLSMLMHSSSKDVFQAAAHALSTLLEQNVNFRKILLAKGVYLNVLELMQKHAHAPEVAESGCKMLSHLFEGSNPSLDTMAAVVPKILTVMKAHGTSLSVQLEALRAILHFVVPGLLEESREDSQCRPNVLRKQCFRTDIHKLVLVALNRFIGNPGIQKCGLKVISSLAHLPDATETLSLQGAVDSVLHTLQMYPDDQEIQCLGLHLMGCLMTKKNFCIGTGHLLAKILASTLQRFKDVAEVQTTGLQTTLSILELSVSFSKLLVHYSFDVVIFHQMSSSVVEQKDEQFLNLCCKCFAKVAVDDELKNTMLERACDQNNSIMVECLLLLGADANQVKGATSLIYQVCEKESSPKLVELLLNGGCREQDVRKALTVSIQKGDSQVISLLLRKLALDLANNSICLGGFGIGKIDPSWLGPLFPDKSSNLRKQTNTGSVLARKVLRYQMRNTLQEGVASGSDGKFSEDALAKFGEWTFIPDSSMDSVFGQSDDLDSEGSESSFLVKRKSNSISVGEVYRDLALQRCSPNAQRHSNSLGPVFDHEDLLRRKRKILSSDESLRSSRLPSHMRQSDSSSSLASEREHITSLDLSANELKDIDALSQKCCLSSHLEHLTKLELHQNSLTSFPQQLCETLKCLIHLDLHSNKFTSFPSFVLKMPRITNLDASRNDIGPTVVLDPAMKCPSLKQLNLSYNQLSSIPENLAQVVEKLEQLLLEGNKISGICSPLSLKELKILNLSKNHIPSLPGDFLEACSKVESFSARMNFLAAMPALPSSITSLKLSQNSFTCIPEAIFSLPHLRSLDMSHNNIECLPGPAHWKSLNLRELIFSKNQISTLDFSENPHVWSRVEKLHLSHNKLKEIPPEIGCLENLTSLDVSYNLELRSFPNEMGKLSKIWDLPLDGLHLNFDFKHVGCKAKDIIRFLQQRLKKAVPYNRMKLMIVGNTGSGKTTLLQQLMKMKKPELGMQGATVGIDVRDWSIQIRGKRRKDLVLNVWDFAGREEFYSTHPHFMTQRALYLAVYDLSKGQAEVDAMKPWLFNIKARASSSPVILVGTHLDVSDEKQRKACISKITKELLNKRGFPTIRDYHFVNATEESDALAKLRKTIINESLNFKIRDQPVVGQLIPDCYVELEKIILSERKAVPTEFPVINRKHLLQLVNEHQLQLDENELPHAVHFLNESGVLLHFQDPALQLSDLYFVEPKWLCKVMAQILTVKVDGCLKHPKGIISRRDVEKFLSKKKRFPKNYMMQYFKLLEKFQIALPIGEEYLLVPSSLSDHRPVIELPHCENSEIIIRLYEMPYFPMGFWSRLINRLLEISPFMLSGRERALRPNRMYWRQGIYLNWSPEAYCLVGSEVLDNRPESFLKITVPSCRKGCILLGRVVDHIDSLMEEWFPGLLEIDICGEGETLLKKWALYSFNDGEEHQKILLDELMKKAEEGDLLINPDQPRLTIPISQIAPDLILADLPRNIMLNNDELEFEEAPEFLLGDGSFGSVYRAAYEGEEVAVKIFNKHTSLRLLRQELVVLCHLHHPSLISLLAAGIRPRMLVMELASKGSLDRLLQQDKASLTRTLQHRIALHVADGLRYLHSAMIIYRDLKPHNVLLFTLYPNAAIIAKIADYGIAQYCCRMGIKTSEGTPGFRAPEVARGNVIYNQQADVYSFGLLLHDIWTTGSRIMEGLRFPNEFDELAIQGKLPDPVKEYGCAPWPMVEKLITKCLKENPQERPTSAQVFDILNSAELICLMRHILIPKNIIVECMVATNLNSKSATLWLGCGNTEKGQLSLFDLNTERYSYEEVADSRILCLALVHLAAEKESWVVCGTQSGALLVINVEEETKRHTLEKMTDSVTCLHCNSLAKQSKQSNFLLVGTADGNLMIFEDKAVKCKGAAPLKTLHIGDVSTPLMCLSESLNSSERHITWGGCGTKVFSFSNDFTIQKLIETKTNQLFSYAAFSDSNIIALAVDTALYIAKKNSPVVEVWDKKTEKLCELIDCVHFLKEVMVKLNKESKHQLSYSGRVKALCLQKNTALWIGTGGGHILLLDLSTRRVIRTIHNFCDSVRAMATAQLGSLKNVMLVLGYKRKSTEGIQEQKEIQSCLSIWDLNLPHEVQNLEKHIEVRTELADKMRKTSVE

Kd [1]: 0.26 µM
Compound: COc1ccc(C(=O)N2CCN(C[C@H]3CC[C@@H](CSC(C)(C)[C@H](NC(=O)C4(F)CC4)C(=O)N4C[C@H](O)C[C@H]4C(=O)NCc4ccc(-c5scnc5C)cc4)CC3)CC2)cc1

DC50 [5]: < 0.01 µM
Compound: CC1(Oc2ccc3[nH]nc(-c4cc(N5CCN(C[C@H]6CC[C@@H](CN7CCN(c8ccc9c(c8F)CN(C8CCC(=O)NC8=O)C9=O)CC7)CC6)CC5)ncn4)c3c2)CC1 (stereo partly specified)

Kd [1]: 0.585 µM
Compound: COc1ccc(C(=O)N2CCN(C[C@H]3CC[C@H](CSC(C)(C)[C@H](NC(=O)C4(F)CC4)C(=O)N4C[C@H](O)C[C@H]4C(=O)NCc4ccc(-c5scnc5C)cc4)CC3)CC2)cc1

Kd [1]: 0.313 µM
Compound: Cc1ncsc1-c1ccc(CNC(=O)[C@@H]2C[C@@H](O)CN2C(=O)[C@@H](NC(=O)C2(F)CC2)C(C)(C)SC[C@H]2CC[C@@H](CN(C)C)CC2)cc1

Continued, molecule first:

Compound: CNc1nc(Nc2ccc(C(=O)N3CCN(C[C@H]4CC[C@@H](CSC(C)(C)[C@H](NC(=O)C5(F)CC5)C(=O)N5C[C@H](O)C[C@H]5C(=O)NCc5ccc(-c6scnc6C)cc5)CC4)CC3)cc2OC)ncc1Cl
Emax [2]: 59%
Kd [3]: 0.16 µM
T1/2 [4]: 2.7 h
Activity (HEK293): 1.4
Kd [1]: 0.326 µM

Compound: Cc1ncsc1-c1ccc(CNC(=O)[C@@H]2C[C@@H](O)CN2C(=O)[C@@H](NC(=O)C2(F)CC2)C(C)(C)SC[C@H]2CC[C@H](CN3CCOCC3)CC2)cc1
TdeltaS [6]: -1.77 kcal/mol
deltaH [7]: -6.98 kcal/mol
Kd [8]: 0.396 µM
deltaG [9]: -8.75 kcal/mol
Kd [1]: 0.54 µM

Compound: CSC(C)(C)[C@H](NC(=O)C1(F)CC1)C(=O)N1C[C@H](O)C[C@H]1C(=O)NCc1ccc(-c2scnc2C)cc1
Kd [1]: 0.406 µM

Compound: Cc1ncsc1-c1ccc(CNC(=O)[C@@H]2C[C@@H](O)CN2C(=O)[C@@H](NC(=O)C2(F)CC2)C(C)(C)SC[C@H]2CC[C@@H](CN3CCOCC3)CC2)cc1
TdeltaS [6]: -1.31 kcal/mol
deltaH [7]: -7.96 kcal/mol
Kd [8]: 0.165 µM
deltaG [9]: -9.25 kcal/mol
Kd [1]: 0.354 µM

Compound: Cc1ncsc1-c1ccc(CNC(=O)[C@@H]2C[C@@H](O)CN2C(=O)[C@@H](NC(=O)C2(F)CC2)C(C)(C)SC[C@H]2CC[C@H](CN(C)C)CC2)cc1
Kd [1]: 0.514 µM

Compound: CNc1nc(Nc2ccc(C(=O)N3CCN(C[C@H]4CC[C@H](CSC(C)(C)[C@H](NC(=O)C5(F)CC5)C(=O)N5C[C@H](O)C[C@H]5C(=O)NCc5ccc(-c6scnc6C)cc5)CC4)CC3)cc2OC)ncc1Cl
Emax [2]: 82%
Kd [3]: > 2.33 µM
T1/2 [4]: 1.2 h
Activity (HEK293): 5.7
Kd [1]: > 0.82 µM
